Data on 64 molecules can be found in a melting point compilation (Tetko et al.; mined from patent text by program, amines drawn as free bases though some values may be those of a salt).

Molecules are shown by their SMILES.

Consider `CC=CC(=O)Nc1n[nH]c2cc(C(F)(F)F)ccc12`, for which the melting point (usually the temperature of the solid-liquid transition) amounted to 208 °C.
Under `CC(C)(C)NC(=O)Nc1nc2nc(N)ncc2cc1-c1c(F)cccc1F` stands above 300 °C; under `COc1cc(COc2nn(-c3ccccc3)cc2C=O)ccc1OCc1nc(N2CCCCC2)sc1C`, 180 to 181 °C.
Under `COC(=O)/C=C/C1=C(C)C2(CCC1(C)C)SCCS2` stands 79.5 to 88.1 °C; under `CON1CCC2(CC1)NC(=O)C(c1cc(Br)c(F)cc1C)=C2O`, 229 to 230 °C; under `Nc1cc(C(Cl)(Cl)Cl)ccn1`, 114 °C.
On to `CC(=O)OCc1cnc2c(NC(=O)c3c(Cl)cccc3Cl)cccc2c1`, for which the melting point lay in the range of 199 to 201 °C.
Under `CC1(C)SCN(CCCCN2CCN(c3ccc4ccccc4n3)CC2)C1=O` stands 107 to 111 °C; under `CN(CCCCCCCCNC(=O)NCCSCc1csc(NC(=N)N)n1)CCC(c1ccc(Cl)cc1)c1ccccn1` (centres undefined), 135 to 140 °C.
Under `N#Cc1ccc(CNC(c2ccccc2)c2ccccc2)cc1` stands 75 °C; under `CCC(CC)C(NC(=O)c1ccc(Cl)cc1)Nc1c(Nc2cccnc2)c(=O)c1=O` (centres undefined), 232 to 233 °C.
Under `CC(C)C(=O)NN(C)C` stands 94 to 96 °C; under `CCOC(=O)c1cccc(-c2cccc3cc(CBr)sc23)c1`, 96 to 97 °C; under `CS(=O)c1ccc(-c2nn(CC3CC3)c(=O)cc2-c2ccc(F)cc2)cc1` (centres undefined), 133 to 134 °C.
In turn, `CCOC(=O)C1=C(C)N(C(C)=O)C(c2csc(C)n2)=NC1c1ccc(OC)cc1` (centres undefined) showed a melting point of 138 to 140 °C.
Under `N=S1C(n2c(S)nnc2-c2ccc(O)cc2)=CC=C1[N+](=O)[O-]` (centres undefined) stands 275 to 276 °C; under `CC(=O)Nc1ccc(/C=C/C(=O)NCC(=O)Nc2ccc(Cl)c(COc3cccc4ccc(C)nc34)c2Cl)cn1`, 272 to 282 °C.
Molecule `CON=C(C(=O)OC)c1ccccc1COc1ccc2c(c1)OCC2=NOC` returned a melting point of 108 to 110 °C.
Under `Nc1cc(F)ccc1[N+](=O)[O-]` stands 99 °C.
Under `OCc1csc(-n2cccc2)n1` stands 111 to 113 °C.
Under `CCOC(=O)c1nc(-c2ccc(OC)cc2)ns1` stands 61 to 63 °C.
Molecule `CCCn1cncc1-c1ccc(O)cc1` registered a melting point of 160 °C.
Regarding `Nc1cccc(C2NC(=O)Cc3ccccc32)c1` (centres undefined), the melting point lay within 179 to 180 °C.
Under `COc1ccc(-c2nc(CCOc3ccc(CN(O)C(N)=O)cc3)c(C)o2)cc1` stands 100 to 101 °C; under `OC(Cn1ccnc1)c1ccccc1` (centres undefined), 146 to 148 °C; under `O=C(NCc1ccc(Cl)cc1)c1cn(CCCc2ccccc2)c2sc(CN3CCOCC3)cc2c1=O`, 169 to 171 °C.
Regarding `N#Cc1ccccc1-n1nc(C2CCN(C#N)CC2)c2ccccc21`, the melting point is 188 to 190 °C.
The molecule `CCOC(=O)Nc1ccc2nc(S(N)(=O)=O)sc2c1` showed a melting point of 223 to 224 °C.
As to `COc1cc(C(=O)O)ccc1Cc1cccc2ccc(C(N)=O)cc12`, the melting point is 283 to 285 °C.
`C=C(C)C(=O)OCCNC(=O)Nc1ccc(C(=O)O)c(O)c1` yielded a melting point of 208 to 210 °C.
Under `CCCn1nc(C(C)C)c(C(=O)O)c1Cc1ccc(-c2ccccc2-c2nnn(C(c3ccccc3)(c3ccccc3)c3ccccc3)n2)cc1` stands 136 to 139 °C; under `CC(=O)OCC1OC(F)C(OC(C)=O)C(OC(C)=O)C1OC(C)=O` (centres undefined), 68 to 69 °C; under `O=C(O)C(Cc1ccccc1)=NNc1ccc(Cl)c(Cl)c1`, 166 to 167 °C.
For the molecule `Cc1ccc(-c2ncc3c(n2)CCCC3)nc1-c1ccc(C=O)cc1`, the melting point was 151 to 154 °C.
In the case of `O=C(NC(=O)c1c(Cl)cccc1Cl)Nc1cnc(-c2ccc(Cl)cc2)cn1`, the melting point is 245 to 249 °C.
Under `COc1cc(C=O)c([N+](=O)[O-])cc1OCCCl` stands 148 to 150 °C; under `COC1CCC(O)C(COS(=O)(=O)c2ccc(C)cc2)O1` (centres undefined), 100 to 102 °C.
For `CC(=O)C1CCC2C3CCC4CC(C)(O)CCC4(C)C3C(=O)CC12C` (centres undefined), the melting point was determined as 175 °C.
Under `c1ccc(CN2CC3OC(C4OCCO4)(C2)c2ccccc23)cc1` (centres undefined) stands 78 to 79.5 °C; under `NC(=O)COc1ccc(-c2n[nH]c3c2Cc2ccccc2-3)cc1`, 247 to 248 °C; under `O=C(c1c(F)cccc1F)N1CS(=O)(=O)CN(c2ccc(Cl)cc2)C1=O`, 274 to 275 °C.
Under `COCOc1ccc(C=CC(=O)c2c(O)cc(OC)cc2OC)cc1` stands 104 °C.
Under `CO[C@@H]1C=C2C=C3C(=C(C)C(=O)N3Cc3ccccc3)C[C@]2(C)[C@@H](C)[C@H]1O` stands 45 °C.
`c1ccc(Cn2ccnc2COc2nn3c(-c4ccon4)nnc3c3ccccc23)cc1` registered a melting point of 198 °C.
Under `O=C(Nc1cccc(-c2ccnc3c(C(=O)c4cccs4)cnn23)c1)c1ccncc1` stands 220 to 222 °C; under `CCCCN1C(=O)C(C)(C)N=C(c2ccccc2F)c2cc([N+](=O)[O-])cc(Cl)c21`, 151 °C; under `CNC(=O)c1ccccc1Nc1nc(Nc2ccc3c(c2)N(C)C(=O)CCC3)ncc1Cl`, 292 to 294 °C.
Under `C=C(C)Cc1c(O)c(C)c(C)c2c1CC(C)N2C=O` (centres undefined) stands 133 to 135 °C; under `CC(C)Nc1cccc2c1C(=O)c1cccc(NC(C)C)c1C2=O`, 170 to 172 °C.
Under `CNC(=O)c1ccnc([N+](=O)[O-])c1` stands 131 to 133 °C; under `CSC(Nc1ccc2c(c1)OCO2)=C(C#N)C(=O)C(C)(C)C`, 139 to 141 °C.
In the case of `COC(=O)c1ccc(Cl)cc1NC(=O)CSc1ccc(N)cc1`, the melting point lay within 145 to 147 °C.
Under `CS(=O)(=O)c1ccc(C(CC2CCCC2)C(=O)O)cc1C(F)(F)F` (centres undefined) stands 100 to 102 °C; under `CC(=O)NCc1cn(-c2ccc(-n3cncn3)c(F)c2)nn1`, 223 °C.
Under `COc1ccc(C(O)Cc2ccccn2)cc1OC1CCCC1` (centres undefined) stands 94 to 96 °C; under `COc1ccc(C2COc3c(ccc(O)c3O)C2)cc1OC` (centres undefined), 176 °C; under `CCOC(=O)[C@H](Cc1ccc(N)cc1)NC(=O)c1ccccc1`, 120 to 122 °C.
Under `CCOC(=O)/C(=C/c1conc1-c1ccc(OC)cc1OCc1ccccc1C(=O)OC)Cc1cc2c(cc1OC)OCO2` stands 135 to 137 °C; under `O=c1cnn(-c2cc(Cl)c(C(c3ccc(Cl)cc3)c3nc(-c4ccccc4)no3)c(Cl)c2)c(=O)[nH]1` (centres undefined), 128 °C; under `CCOC(=O)c1csc(-c2cccs2)n1`, 72 to 73 °C.
Regarding `Cc1ccc(S(=O)(=O)NCl)cc1`, the melting point is 201 to 206 °C.
In turn, `O=c1[nH]c(-c2ccccc2)cn1S(=O)(=O)c1ccc2c(c1)CCN2Cc1cccnc1` returned a melting point of 244 to 245 °C.
Under `COC(=O)c1ccc(CCC(C=Cc2ccc(O)c(OC)c2)=NO)o1` stands 110 to 125 °C; under `CCOC(=O)C1=C(C)Nc2nc(N3CCOCC3)nc(N3CCOCC3)c2C1c1cccc([N+](=O)[O-])c1` (centres undefined), 190 °C.
